{"source": "patent US20050209201A1", "about": "“Method and composition for suppression of inflammation” (Shiseido Co., Ltd., priority 2004, published 2005)", "key": {"[1]": {"test_system": "IL-8 release in ultraviolet irradiated keratinocytes", "assay": "Release of cytokine IL-8 in ultraviolet irradiated keratinocytes (ELISA)", "type": "cell-based, human", "description": "(§1) Commercially available keratinocytes (Kurabo) were cultured in KGM-2 medium (Kurabo) according to the manufacturer's manual. The cells were seeded in a 12-well plate at 1.5×10^5 cells/well.\n(§2) The medium in the 12-well plate was discarded on the day after seeding of the cells, and 24 hours after adding 2 ml of test solution dissolved in fresh medium, the culture supernatants were collected. The IL-6, IL-8, IL-1α and TNF concentrations in the recovered supernatants were measured using a commercially available ELISA kit (R&D Systems, USA).\n(§3) After discarding the medium, PBS(−) was added and UVB was irradiated at 30 or 60 mJ/cm^2. Following the irradiation, the PBS(−) was discarded, 2 ml of the medium or test solution dissolved in the medium was added, and the culture supernatants were collected after 24 hours.\nCells were exposed to ultraviolet irradiation. After 24 h, keratinocyte cell supernatants were collected and the content of IL-8 was assayed with an ELISA kit."}, "[2]": {"test_system": "IL-6 release in ultraviolet irradiated keratinocytes", "assay": "Release of cytokine IL-6 in ultraviolet irradiated keratinocytes (ELISA)", "type": "cell-based, human", "description": "as §1, §2, §3\nCells were exposed to ultraviolet irradiation. After 24 h, keratinocyte cell supernatants were collected and the content of IL-6 was assayed with an ELISA kit."}, "[3]": {"test_system": "IL-1α release from keratinocytes", "assay": "ATP-induced IL-1α release from keratinocytes (ELISA)", "type": "cell-based, human", "description": "as §1, §2\nATP (10 μM-1 mM) dissolved in the culture medium was applied as a test solution to keratinocytes, and after 24 hours the culture supernatants were collected and the inflammatory cytokine IL-1α was assayed with an ELISA kit."}, "[4]": {"test_system": "IL-6 release from keratinocytes", "assay": "ATP-induced IL-6 release from keratinocytes (ELISA)", "type": "cell-based, human", "description": "as §1, §2\nATP (10 μM-1 mM) dissolved in the culture medium was applied as test solution to keratinocytes, and after 24 hours the culture supernatants were collected and the inflammatory cytokine IL-6 was assayed with the ELISA kit."}, "[5]": {"test_system": "IL-8 release from keratinocytes", "assay": "ATP-induced IL-8 release from keratinocytes (ELISA)", "type": "cell-based, human", "description": "as §1, §2\nATP (10 μM-1 mM) dissolved in the culture medium was applied as a test solution to keratinocytes, and after 24 hours the culture supernatants were recovered and the inflammatory cytokine IL-8 was assayed with an ELISA kit."}, "[6]": {"test_system": "TNFα release from keratinocytes", "assay": "ATP-induced TNFα release from keratinocytes (ELISA)", "type": "cell-based, human", "description": "as §1, §2\nATP (10 μM-1 mM) dissolved in the culture medium was applied as a test solution to keratinocytes, and after 24 hours the culture supernatants were recovered and the inflammatory cytokine TNFα was assayed with an ELISA kit."}, "[7]": {"test_system": "IL-8 gene expression in keratinocytes", "assay": "IL-8 gene expression in keratinocytes (Taqman RT-PCR)", "type": "cell-based, human", "settings": "Taqman-PCR normalized to GAPDH", "description": "as §1\n(§4) Keratinocytes were treated with the test solution and cells treated for 6 hours were used. Total RNA was extracted from the cells by addition of ISOGEN (Nippon Gene) according to the manufacturer's manual. cDNA was prepared with M-MLV reverse transcriptase (Life Technologies, Rockville USA), using 1 μg of RNA as template.\n(§5) The gene sequence of the obtained cDNA was determined quantitatively by Taqman-PCR using an ABI PRISM 7700 Sequence Detector (Perkin Elmer) according to the manufacturer's manual, in the manner described in paragraph 11 of Japanese Unexamined Patent Publication (Kokai) No. 11-32799. The result was normalized on the basis of the expression level of human GAPDH (glyceraldehyde-3-phosphate dehydrogenase) used as an internal standard."}, "[8]": {"test_system": "IL-6 gene expression in keratinocytes", "assay": "IL-6 gene expression in keratinocytes (Taqman RT-PCR)", "type": "cell-based, human", "settings": "Taqman-PCR normalized to GAPDH", "description": "as §1, §4, §5"}, "[9]": {"test_system": "HR-1 mice", "assay": "Confirmation test for inflammation suppressing effect: acetone barrier disruption in a dry environment, HE staining of dorsal skin", "type": "in vivo", "settings": "dry environment (<10% RH), acetone-treated dorsal skin, coating with 1 mM Reactive blue 2, skin collected after 48 hours, control water", "description": "After raising HR-1 mice for 48 hours in a dry environment (<10% RH), the dorsal skin was acetone-treated to disrupt its skin barrier function, and then the skin was applied with 1 mM Reactive blue 2. Control animals were applied with water. After an additional 48 hours, the dorsal skins of both animal groups were collected. The skin tissue was fixed with formaldehyde and subjected to hematoxylin-eosin (HE) staining and observed under an optical microscope."}, "[10]": {"settings": "pretreatment of the cells with suramin, data not shown"}, "[11]": {"settings": "ATP 30-1000 μM, concentration-dependent"}, "[12]": {"settings": "ATP 10 μM-1 mM, 24 hours, ELISA, in proportion to concentration"}, "[13]": {"settings": "ATP 10 μM-1 mM, 24 hours, ELISA, in proportion to ATP concentration"}, "[14]": {"settings": "UVB irradiation 10 minutes after pretreatment with 100 μM Reactive blue 2, supernatant after 24 h, ELISA"}, "[15]": {"settings": "Reactive blue 2 100 μM, cells treated 6 hours"}, "[16]": {"settings": "keratinocytes pretreated with 100 μM Reactive blue 2, ATP added 10 minutes later, supernatant after 24 hours, ELISA"}, "[17]": {"settings": "keratinocytes pretreated with 30-100 μM Reactive blue 2, ATP added 10 minutes later, supernatant after 24 hours, ELISA"}}}
{"smiles": "Cc1ccc(C(=O)Nc2ccc(S(=O)(=O)O)c3cc(S(=O)(=O)O)cc(S(=O)(=O)O)c23)cc1NC(=O)c1cccc(NC(=O)Nc2cccc(C(=O)Nc3cc(C(=O)Nc4ccc(S(=O)(=O)O)c5cc(S(=O)(=O)O)cc(S(=O)(=O)O)c45)ccc3C)c2)c1", "note": "[suramin]", "values": [{"measurement": "increase in IL-8 release produced by ultraviolet irradiation", "setting": "[1]; [10]", "value": "similarly inhibited"}, {"measurement": "increase in IL-6 release produced by ultraviolet irradiation", "setting": "[2]; [10]", "value": "similarly inhibited"}, {"measurement": "increase in IL-1α release produced by ATP addition", "setting": "[3]; [10]", "value": "similarly inhibited"}, {"measurement": "increase in IL-6 release produced by ATP addition", "setting": "[4]; [10]", "value": "similarly inhibited"}, {"measurement": "increase in IL-8 release produced by ATP addition", "setting": "[5]; [10]", "value": "similarly inhibited"}, {"measurement": "increase in TNFα release produced by ATP addition", "setting": "[6]; [10]", "value": "similarly inhibited"}]}
{"smiles": "Nc1ncnc2c1ncn2[C@@H]1O[C@H](COP(=O)(O)OP(=O)(O)OP(=O)(O)O)[C@@H](O)[C@H]1O", "note": "[ATP, adenosine triphosphate]", "values": [{"measurement": "IL-8 expression over non-stimulated cells (controls)", "setting": "[7]; [11]", "value": "significantly increased"}, {"measurement": "IL-1α in culture supernatant after addition of ATP", "setting": "[3]; [12]", "value": "significant increase"}, {"measurement": "IL-6 in culture supernatant after addition of ATP", "setting": "[4]; [13]", "value": "significant increase"}, {"measurement": "IL-6 expression over non-stimulated cells (controls)", "setting": "[8]; [11]", "value": "significantly increased"}, {"measurement": "IL-8 in culture supernatant after addition of ATP", "setting": "[5]; [13]", "value": "significant increase"}, {"measurement": "TNFα in culture supernatant after addition of ATP", "setting": "[6]; [12]", "value": "significant increase"}]}
{"smiles": "Nc1c(S(=O)(=O)O)cc(Nc2ccc(Nc3nc(Cl)nc(Nc4cccc(S(=O)(=O)O)c4)n3)c(S(=O)(=O)O)c2)c2c1C(=O)c1ccccc1C2=O", "note": "[Reactive blue 2]", "values": [{"measurement": "epidermal hyperplasia after barrier disruption (HE staining)", "setting": "[9]", "value": "inhibits the epidermal hyperplasia"}, {"measurement": "ultraviolet irradiation-induced increase in IL-8", "setting": "[1]; [14]", "value": "significantly inhibited"}, {"measurement": "ATP-induced increase in IL-8 gene expression", "setting": "[7]; [15]", "value": "significantly inhibited"}, {"measurement": "ultraviolet irradiation-induced increase in IL-6", "setting": "[2]; [14]", "value": "significantly inhibited"}, {"measurement": "ATP-induced increase in IL-1α", "setting": "[3]; [16]", "value": "significantly inhibited"}, {"measurement": "ATP-induced increase in IL-6", "setting": "[4]; [17]", "value": "significantly inhibited"}, {"measurement": "ATP-induced increase in IL-6 gene expression", "setting": "[8]; [15]", "value": "significantly inhibited"}, {"measurement": "ATP-induced increase in IL-8", "setting": "[5]; [17]", "value": "significantly inhibited"}, {"measurement": "ATP-induced increase in TNFα", "setting": "[6]; [16]", "value": "significantly inhibited"}]}
